This note sets out measurements from article PMC6269846, “Pyrrolizidine Alkaloids and Fatty Acids from the Endemic Plant Species Rindera umbellata and the Effect of Lindelofine-N-oxide on Tubulin Polymerization” (Molecules, 2013).

Assay [1] has as its system T1, tubulin.
T1 construct: tubulin isolated from bovine brain (α/β heterodimer); with α-tubulin/β-tubulin heterodimer
In words: turbidimetric tubulin polymerization assay (absorbance at […] nm). The assay is classed as biochemical, Bos taurus.

In assay [2] the test system is T1, tubulin. In words: turbidimetric tubulin polymerization assay (absorbance at […] nm), positive control. The assay is classed as biochemical, Bos taurus.

Broadly, the IC50 is the concentration that inhibits the measured activity by half. In the assay on tubulin [1], `CC(C)[C@@](O)(C(=O)OC[C@@H]1CC[N+]2([O-])CCC[C@H]12)[C@@H](C)O` (stereo partly drawn) [compound 7, (2S,3R)-((1R,7aR)-hexahydro-1H-pyrrolizin-1-yl)methyl2,3-dihydroxy-2-isopropylbutanoate-N-oxide] showed an IC50 of 91 µM.

Turning to `CC(=O)O[C@H]1C(=O)[C@@]2(C)[C@H]([C@H](OC(=O)c3ccccc3)[C@]3(O)C[C@H](OC(=O)[C@H](O)[C@@H](NC(=O)c4ccccc4)c4ccccc4)C(C)=C1C3(C)C)[C@]1(OC(C)=O)CO[C@@H]1C[C@@H]2O` [paclitaxel], 2.4 µM corresponded to half-maximal inhibition in the assay on tubulin [2] (IC50).
